The values that follow come from patent US20240124483A1, “Methods for the Treatment of Fibrotic Disease” (SHY Therapeutics, LLC, priority 2021, published 2024).

Each structure is given as a SMILES string. Like-named read-outs stand apart in the source and are kept apart here.

For one experiment, the system named is AKT phosphorylation. Description: Western AKT Cell-Based Phosphorylation Assay. To be noted: Homo sapiens, PANC-1, 6 hours, EGF 1.5 ng/ml, read-out: % inh of AKT phosphorylation in PANC-1. In short, it runs like this:
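PANC-1 cells, serum-starved overnight in 0.5% FBS, were treated with compound at 10 μM (0.3% DMSO) for 6 h at 37 °C and then stimulated with 1.5 ng/ml EGF for 15 min. Lysates (15–50 μg) were immunoblotted for phospho-Akt Ser473, with ECL detection.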

A further experiment has as its target KRas Q61H mutant (Homo sapiens (Human), UniProt P01116, Q61H). Description: Ras GTP Binding Domain Inhibition Assay, KRas Q61H mutant. To be noted: 20 μM. An outline of the steps:
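His-tagged KRas proteins coated on nickel plates overnight at 4° C in Tris buffer (pH 7.4 or 7.0, MgCl2, DTT); compounds at 20 μM final (or serial dilutions for IC50) for 3 h at room temperature, ±Sos (residues 556-1049) in final hour. Bound Cy3- or Cy5-GTP (100 nM, 45 min) read by fluorescence after washing.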

The test system of the next experiment is ERK1/2 phosphorylation. Description: Western ERK1/2 Cell-Based Phosphorylation Assay. As to conditions: Homo sapiens, PANC-1, 6 hours, EGF 1.5 ng/ml, read-out: % inh of ERK1/2 phosphorylation in PANC-1. In short, it runs like this: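 Panc-1 cells starved overnight in 0.5% FBS, then treated with compound (10 μM or serial dilutions for IC50, 0.3% DMSO) for 6 h at 37 °C. Cells stimulated with 1.5 ng/ml EGF for 15 min, lysed. Phospho-ERK1/2 (Thr202/Tyr204) measured by western blot on 15-50 μg protein.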

Setting [1] is: + SOS, read-out: KRas Q61H mutant + SOS: % inh.
Where [2] appears, read: without SOS, read-out: KRas Q61H mutant: % inh.

KRas Q61H mutant, sequence (P01116 other isoform, or with tags, fused parts or gaps Q61H): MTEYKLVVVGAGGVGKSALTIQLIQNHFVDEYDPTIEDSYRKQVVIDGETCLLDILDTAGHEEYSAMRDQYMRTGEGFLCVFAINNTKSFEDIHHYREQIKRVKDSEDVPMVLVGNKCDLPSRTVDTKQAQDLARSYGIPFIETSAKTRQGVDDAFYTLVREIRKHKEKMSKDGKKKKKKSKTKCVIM

On to `COCCCCn1c(-c2nccn2C)nc2sc(-c3ccn(C(C)C)n3)c(C)c2c1=O` [Compound 33, 6-(1-Isopropyl-1H-pyrazol-3-yl)-3-(4-methoxybutyl)-5-methyl-2-(1-methyl-1H-imidazol-2-yl)thieno[2,3-d]pyrimidin-4(3H)-one], for which the inhibition at 10 µM with AKT phosphorylation and with ERK1/2 phosphorylation was 0% throughout. Also, the inhibition at 20 µM on KRas Q61H mutant (setting [1]) is 1 to 25%; at KRas Q61H mutant (setting [2]) it was 0%.
Turning to `COCCCCOc1nc(-c2nccn2C)nc2sc(-c3ccn(C(C)C)n3)c(C)c12` [Compound 34, 6-(1-Isopropyl-1H-pyrazol-3-yl)-4-(4-methoxybutoxy)-5-methyl-2-(1-methyl-1H-imidazol-2-yl)thieno[2,3-d]pyrimidine], the inhibition at 10 µM with AKT phosphorylation and in the experiment with ERK1/2 phosphorylation was 0% in each case. In addition, the inhibition at 20 µM on KRas Q61H mutant (setting [1]) was 1 to 25%; at KRas Q61H mutant (setting [2]) it was 0%.
With `COc1cc(Cn2c(-c3nccn3C)nc3sc(-c4ccn(C(C)C)n4)c(C)c3c2=O)ncn1` [Compound 35, 6-(1-Isopropyl-1H-pyrazol-3-yl)-3-((6-methoxypyrimidin-4-yl)methyl)-5-methyl-2-(1-methyl-1H-imidazol-2-yl)thieno[2,3-d]pyrimidin-4(3H)-one], the inhibition at 10 µM in the experiment on AKT phosphorylation and in the experiment with ERK1/2 phosphorylation was 0% each time. The inhibition at 20 µM on KRas Q61H mutant (setting [1]) and at KRas Q61H mutant (setting [2]) was 1 to 25% throughout.
In the case of `COCCCn1c(-c2nccn2C)nc2sc(-c3ccn(C(C)C)n3)c(-c3ccccc3)c2c1=O` [Compound 36, 6-(1-Isopropyl-1H-pyrazol-3-yl)-3-(3-methoxypropyl)-2-(1-methyl-1H-imidazol-2-yl)-5-phenylthieno[2,3-d]pyrimidin-4(3H)-one], the inhibition at 10 µM in the experiment with AKT phosphorylation and with ERK1/2 phosphorylation was 0% throughout. The inhibition at 20 µM at KRas Q61H mutant (setting [1]) and on KRas Q61H mutant (setting [2]) was 0% each time.
Take `COCCCOc1nc(-c2nccn2C)nc2sc(-c3ccn(C(C)C)n3)c(-c3ccccc3)c12` [Compound 37, 6-(1-Isopropyl-1H-pyrazol-3-yl)-4-(3-methoxypropoxy)-2-(1-methyl-1H-imidazol-2-yl)-5-phenylthieno[2,3-d]pyrimidine]: the inhibition at 10 µM in the experiment on AKT phosphorylation and with ERK1/2 phosphorylation was 0% each time. Also, the inhibition at 20 µM on KRas Q61H mutant (setting [1]) and on KRas Q61H mutant (setting [2]) was 0% in each case.
Take `COc1cccc(-c2sc3nc(-c4nccn4C)nc(N[C@H]4C[C@H](OC)C4)c3c2-c2ccccc2)c1F` [Compound 40, 6-(2-Fluoro-3-methoxyphenyl)-N-((1r,3r)-3-methoxycyclobutyl)-2-(1-methyl-1H-imidazol-2-yl)-5-phenylthieno[2,3-d]pyrimidin-4-amine]: the inhibition at 10 µM with AKT phosphorylation and in the experiment on ERK1/2 phosphorylation was 76 to 100% each time. In addition, the inhibition at 20 µM at KRas Q61H mutant (setting [1]) and at KRas Q61H mutant (setting [2]) was 76 to 100% in each case.
`COc1cccc(-c2sc3nc(-c4nccn4C)nc(N[C@H]4C[C@H](OC)C4)c3c2C)c1F` [Compound 42, 6-(2-Fluoro-3-methoxyphenyl)-N-((1r,3r)-3-methoxycyclobutyl)-5-methyl-2-(1-methyl-1H-imidazol-2-yl)thieno[2,3-d]pyrimidin-4-amine]: the inhibition at 10 µM lay in the range of 26 to 45% in the experiment on AKT phosphorylation and 46 to 75% with ERK1/2 phosphorylation. Further, the results for the inhibition at 20 µM at KRas Q61H mutant (setting [1]) and at KRas Q61H mutant (setting [2]) were 76 to 100% and 46 to 75%, respectively.
For the compound `COc1nccc(-c2sc3nc(-c4nccn4C)nc(N[C@H]4C[C@H](OC)C4)c3c2-c2ccccc2)c1F` [Compound 45, 6-(3-Fluoro-2-methoxypyridin-4-yl)-N-((1r,3r)-3-methoxycyclobutyl)-2-(1-methyl-1H-imidazol-2-yl)-5-phenylthieno[2,3-d]pyrimidin-4-amine], the inhibition at 10 µM in the experiment on AKT phosphorylation and in the experiment on ERK1/2 phosphorylation was 76 to 100% each time. The inhibition at 20 µM is 76 to 100% at KRas Q61H mutant (setting [1]) and 46 to 75% on KRas Q61H mutant (setting [2]).
For the compound `COc1cc(-c2sc3nc(-c4nccn4C)nc(N[C@H]4C[C@H](OC)C4)c3c2-c2ccccc2)ccn1` [Compound 46, N-((1r,3r)-3-Methoxycyclobutyl)-6-(2-methoxypyridin-4-yl)-2-(1-methyl-1H-imidazol-2-yl)-5-phenylthieno[2,3-d]pyrimidin-4-amine], the figures for the inhibition at 10 µM in the experiment with AKT phosphorylation and in the experiment with ERK1/2 phosphorylation were 1 to 25% and 76 to 100%, respectively. For the same compound, the inhibition at 20 µM at KRas Q61H mutant (setting [1]) and on KRas Q61H mutant (setting [2]) was 76 to 100% in each case.
